Here are results for two molecules from ChEMBL document CHEMBL1143016, “Scutiaquinones A and B, perylenequinones from the roots of Scutia myrtina with anthelmintic activity” (J Nat Prod, 2007).

Structures are written as SMILES. Values after ≈ are worked out from the molar mass of the structure shown. Active and inactive are the calls of the source. The rule behind the calls is not given here.

The test system of data set [1] is Heligmosomoides polygyrus. Put plainly: Anthelmintic activity against Heligmosomoides polygyrus infected Swiss-Webster mouse assessed as reduction of worm counts at 25 mg/kg, im. The class given is functional, organism-based. Also on record: dose 25 mg/kg.
The next data set has as its system Haemonchus contortus. Put plainly: Anthelmintic activity against Haemonchus contortus assessed as reduction in L3 larval motility. It is filed as functional.
For a further data set, the system named is Mus musculus. Put plainly: Toxicity in Swiss-Webster mouse at 50 mg/kg, im. It is filed as organism-based. Also on record: dose 50 mg/kg, route intramuscular. The following applies: in vivo.
Data set [2] relates to Heligmosomoides polygyrus. Put plainly: Anthelmintic activity against Heligmosomoides polygyrus infected Swiss-Webster mouse assessed as reduction of worm counts at 30 mg/kg, im. The class given is functional, organism-based. Also on record: dose 30 mg/kg.

`Cc1cc2c3cc(C)c(O)c4c(=O)c5c(c(c6c7c(c(=O)c(c1O)c26)[C@@H](C)O[C@@H](C)C7)c43)C[C@H](C)O[C@@H]5C` [SCUTIAQUINONE A]: the outcome in data set [1] was inactive. Also, the EC90 with Haemonchus contortus is 9.3 µg/mL (≈ 18.2 µM).

Consider `Cc1cc2c3c4c(c(O)c5c(=O)c(C)cc(c6c7c(c(=O)c(c1O)c26)[C@@H](C)O[C@@H](C)C7)c53)[C@@H](C)O[C@@H](C)C4` [SCUTIAQUINONE B], for which the Activity result with Mus musculus is reported as “Toxic”. In addition, in data set [2], the outcome was inactive. The EC90 in the data set on Haemonchus contortus was 10.3 µg/mL (≈ 20.2 µM).

For orientation: EC90 means the concentration at which the effect reaches the 90% level.
